Measured values from patent publication US11707449B2, “Methods and formulations for treatment of spinobulbar muscular atrophy” (ST. JUDE CHILDREN'S RESEARCH HOSPITAL, INC., priority 2017, dated 2023).
Several values for one entry are separate records, joined by “and”; a condition that tells them apart may be missing. Equal values may be shown once. Read-outs that look alike come from different tables or passages of the source. One block for each compound: values may come before it.

Tests used:
[1] = Pharmacokinetics of MEPB and TA in plasma and tissues after a single intraperitoneal injection; type: in vivo, male FVB/NJ mice; settings: for bioavailability in muscle, brain, and spinal cord / bioavailability in SBMA-affected tissues: mice
Description: MEPB and TA concentrations in plasma, liver, muscle, testes, brain, and spinal cord of male FVB/NJ mice were measured at multiple time points (5 min to 48 h) after a single intraperitoneal injection of either 100 mg/kg body weight MEPB or 50 mg/kg body weight TA. MEPB or TA and the internal standard (IS) SLV320 (Tocris Biosciences) were extracted from plasma and tissue homogenate samples with methyl tert-butyl ether. A 25-μL aliquot of sample was mixed with 10 μL IS (100 ng/mL). To this, 600 μL methyl tert-butyl ether was added and vortexed for 5 min. After centrifugation at 10,000 rpm for 5 min, the organic layer was then transferred to a glass vial and dried in a CentriVap Console (Labconco) at 35° C. for 25 min. The dried extracts were then reconstituted with 400 μL methanol, and an aliquot of 3 μL was injected onto the chromatographic system. All chemicals were HPLC grade or higher and were obtained from Fisher Scientific (Fair Lawn) unless otherwise specified. Quantitation of MEPB and TA was performed using an API 4000 mass spectrometer (AB SCIEX) equipped with a Prominence Ultra-Fast Liquid Chromatograph (UFLCXR) system (Shimadzu). […] Mass spectrometric analysis was performed with the turbo ion spray in positive ionization mode. All MS data were acquired using Analyst 1.5.2 software and processed using MultiQuant 2.1.1 software (SCIEX).
For all matrices (plasma, liver, muscle, testes, brain, and spinal cord), the lower limit of quantification (LLOQ) of MEPB was 2.5 ng/mL with a calibration range of 2.5 ng/mL to 100 ng/mL. However, due to dilution during homogenization, the effective LLOQ was 15 ng/mL for solid tissues. The LLOQ of TA was 5 ng/mL for plasma and 60 ng/mL for tissues. […] The MEPB concentration-time (Ct) data for liver, muscle, testes, brain, and spinal cord were grouped by mouse and analyzed using a two-stage, semiphysiologic, nonlinear mixed effects approach with maximum likelihood expectation maximization in ADAPT 5. The pooled arithmetic mean Ct data were subjected to noncompartmental analysis by tissue using WinNonlin 6.4 (Pharsight, a Cetara Company). All PK parameters were calculated using standard formulae^43. Parameters estimated for all matrices included observed maximum concentration (Cmax), time of Cmax (Tmax), concentration at the last observed time point (Clast), time of Clast (Tlast), and area under the Ct curve (AUC). When applicable, the terminal phase was defined as the three time points at the end of the Ct profile, excluding Cmax, and the elimination rate constant (Kel) was estimated using an unweighted log-linear regression of the terminal phase. The terminal elimination half-life (T½) was estimated as 0.693/Kel, and the AUC from time 0 to infinity ([…]) was estimated as the AUC to the last time point (AUClast)+Clast/Ke. Apparent clearance (CL/F=Dose/AUCinf), and apparent terminal volume of distribution (Vz/F) were also calculated.

AR121Q mice = assay: Pilot preclinical trial in AR121Q (SBMA) mice; type: in vivo, mouse; settings: male SBMA mice; 50 mg/kg intraperitoneally three times per week, 3 to 8 weeks of age
Description: To determine the efficacy of TA and/or MEPB in a mouse model of SBMA, we first performed a pilot study. Five mice were assigned to each drug treatment group: 50 mg/kg TA, 50 mg/kg MEPB, or vehicle (1% DMSO in corn oil). Drug identities were coded to ensure investigator blinding, and drugs were administered three times per week (Monday, Wednesday, and Friday) by intraperitoneal injection from 3 to 8 weeks of age. At 8 weeks, all mice were sacrificed and tissues were collected for pathologic analysis. To fully characterize the efficacy of MEPB in SBMA mice, a large-scale, multi-dose preclinical trial was performed. A power analysis (Table 1) was performed based on the pilot study data to determine the adequate number of mice required for 80% power. At least 10 mice were assigned to each drug treatment group: 50 mg/kg MEPB, 100 mg/kg MEPB, and vehicle (1% DMSO in corn oil). Drug identities were coded to ensure investigator blinding, and drugs were administered three times per week (Monday, Wednesday, and Friday) by intraperitoneal injections from 4 weeks until 30 weeks of age.
Body weight, rotarod activity, and grip strength data were collected weekly. Footprint analysis and clasping phenotype were assessed at 7 and 8 weeks of age. Body weight was measured using a standard laboratory scale (Fisher Scientific). Rotarod activity analysis was performed on an accelerating rotarod apparatus (IITC Life Science) using a two-day, weekly protocol. Mice were trained on the first day with one session set at 4 rpm for 5 min. The following day, mice were placed on the apparatus, rotation speed was set to accelerate from 4-40 rpm at a rate of 0.1 rpm/s, and the latency to fall was recorded for four separate trials per mouse. Mice were given a 15-min rest period between each trial. Grip strength was measured using a grip strength meter (Bioseb). Grip strength was measured as grams of force in six repeated measurements for forepaws and hindpaws of each animal. To perform gait/footprint analysis, the forepaws and hindpaws of each animal were dipped in red and blue, respectively, water-soluble, non-toxic paint. The animal was then placed in a 70-cm long tunnel lined on the bottom with Whatman filter paper, the entrance was sealed, and the animal was allowed to walk through one time. Footprints were scanned and analyzed with Image J for stride length and forepaw/hindpaw overlap^41. To determine clasping phenotype, mice were recorded using an Apple iPod camera (iOS version 6.1.6) for approximately 60 seconds and still frames were extracted using ImageJ.
A separate cohort of five mice per treatment group was generated for pathologic and biochemical analysis. Mice were anesthetized by isoflurane inhalation and transcardially perfused with either PBS for frozen tissue samples or 10% formalin for fixed tissue samples. Selected tissues (brain, spinal cord, gastrocnemius/soleus muscle, testes, and liver) were dissected and either snap-frozen in liquid nitrogen or processed for paraffin embedding/sectioning. Tissue sections were stained with hematoxylin and eosin, toluidine blue, or Gomori trichrome to ascertain overall morphology and pathologic changes. To determine AR staining and colocalization patterns, tissue sections were stained with anti-AR (N20, Santa Cruz), anti-polyQ (5TF1-1C2, EMD Millipore), or anti-ubiquitin (Cell Signaling Technology) antibodies. To quantify type I and type II myofibers, hindlimb tissue sections were stained with myosin heavy chain-slow twitch and myosin heavy chain-fast twitch antibodies (Leica Biosystems), respectively. For the purposes of counting ChAT-positive neurons, three stepped sections separated by 50 μm were analyzed for the cervical, thoracic, and lumbosacral areas of spinal cords. The slides contained three to six tissue sections at each level and were labeled with an anti-ChAT antibody (EMD Millipore). […]

[2] = single intraperitoneal injection of 100 mg/kg MEPB or 50 mg/kg TA

Tlast (time of Clast) ([1]; TA in brain, single intraperitoneal injection of 50 mg/kg TA): 4 h | Tlast (time of Clast) ([1]; TA in liver, single intraperitoneal injection of 50 mg/kg TA): 24 h | Tlast (time of Clast) ([1]; TA in muscle, single intraperitoneal injection of 50 mg/kg TA): 8 h | Tlast (time of Clast) ([1]; TA in plasma, single intraperitoneal injection of 50 mg/kg TA): 48 h | Tlast (time of Clast) ([1]; TA in spinal cord, single intraperitoneal injection of 50 mg/kg TA): 4 h | Tlast (time of Clast) ([1]; TA in testis, single intraperitoneal injection of 50 mg/kg TA): 8 h | Cmax ([1]; male, FVB/NJ, mouse, ip, TA conc. in brain, single intraperitoneal injection of 50 mg/kg TA): 700 nM and 194 ng/mL | Cmax ([1]; male, FVB/NJ, mouse, ip, TA conc. in liver, single intraperitoneal injection of 50 mg/kg TA): 260 µM and 67600 ng/mL | Cmax ([1]; male, FVB/NJ, mouse, ip, TA conc. in muscle, single intraperitoneal injection of 50 mg/kg TA): 4.8 µM and 1250 ng/mL | Cmax ([1]; male, FVB/NJ, mouse, ip, TA conc. in plasma, single intraperitoneal injection of 50 mg/kg TA): 223 µM and 13400 ng/mL | Cmax ([1]; male, FVB/NJ, mouse, ip, TA conc. in spinal cord, single intraperitoneal injection of 50 mg/kg TA): 2.1 µM and 554 ng/mL | Cmax ([1]; male, FVB/NJ, mouse, ip, TA conc. in testis, single intraperitoneal injection of 50 mg/kg TA): 11.6 µM and 3030 ng/mL | Tmax ([1]; male, FVB/NJ, mouse, ip, TA in brain, single intraperitoneal injection of 50 mg/kg TA): 1 h | concentration at 4 hr ([1]; male, FVB/NJ, mouse, ip, TA in brain, single intraperitoneal injection of 50 mg/kg TA, read-out: Clast (concentration at the last observed time point)): 66.7 ng/mL | Tmax ([1]; male, FVB/NJ, mouse, ip, TA in liver, single intraperitoneal injection of 50 mg/kg TA): 1 h | concentration at 24 hr ([1]; male, FVB/NJ, mouse, ip, TA in liver, single intraperitoneal injection of 50 mg/kg TA, read-out: Clast (concentration at the last observed time point)): 508 ng/mL | Tmax ([1]; male, FVB/NJ, mouse, ip, TA in muscle, single intraperitoneal injection of 50 mg/kg TA): 1 h | concentration at 8 hr ([1]; male, FVB/NJ, mouse, ip, TA in muscle, single intraperitoneal injection of 50 mg/kg TA, read-out: Clast (concentration at the last observed time point)): 119 ng/mL | Tmax ([1]; male, FVB/NJ, mouse, ip, TA in plasma, single intraperitoneal injection of 50 mg/kg TA): 1 h | concentration at 48 hr ([1]; male, FVB/NJ, mouse, ip, TA in plasma, single intraperitoneal injection of 50 mg/kg TA, read-out: Clast (concentration at the last observed time point)): 19.8 ng/mL | Tmax ([1]; male, FVB/NJ, mouse, ip, TA in spinal cord, single intraperitoneal injection of 50 mg/kg TA): 1 h | concentration at 4 hr ([1]; male, FVB/NJ, mouse, ip, TA in spinal cord, single intraperitoneal injection of 50 mg/kg TA, read-out: Clast (concentration at the last observed time point)): 84.6 ng/mL | Tmax ([1]; male, FVB/NJ, mouse, ip, TA in testis, single intraperitoneal injection of 50 mg/kg TA): 1 h | concentration at 8 hr ([1]; male, FVB/NJ, mouse, ip, TA in testis, single intraperitoneal injection of 50 mg/kg TA, read-out: Clast (concentration at the last observed time point)): 150 ng/mL | bioavailability in muscle, brain, and spinal cord [1]: poor bioavailability | bioavailability in SBMA-affected tissues [1, 2]: poor bioavailability
Structure (SMILES): Cc1c(Cl)cccc1Nc1ccccc1C(=O)O [TA, tolfenamic acid]
any measurements of SBMA-associated degeneration (AR121Q mice): did not significantly alter any measurements of SBMA-associated degeneration

Structure (SMILES): Cc1ccc(OCCn2c(SCCOc3ccccc3)nc3ccccc32)cc1 [MEPB, 1-[2-(4-methylphenoxy)ethyl]-2-[(2-phenoxyethyl)sulfanyl]-1H-benzimidazole]
penetration and duration in muscle, spinal cord, and testes ([1]; NTG mice, single intraperitoneal injection of 100 mg/kg MEPB or 50 mg/kg TA): marked penetration and duration | bioavailability in muscle, brain, and spinal cord [1]: good bioavailability | bioavailability in SBMA-affected tissues [1, 2]: sufficient bioavailability | body weight (AR121Q mice): significantly improved | gait and hindlimb clasping (AR121Q mice): improved gait and hindlimb clasping | grip strength (AR121Q mice): significantly improved | pathologic appearance of skeletal muscle and spinal cord degeneration (AR121Q mice): qualitatively recovered | rotarod activity (AR121Q mice): significantly improved | survival (AR121Q mice): no significant change in survival
